# Measurements: US20150105252A1, “SUBSTITUTED PYRAZOLES AS HERBICIDES” (E I DU PONT DE NEMOURS AND COMPANY, priority 2013, published 2015)
# Assays:
# oilseed rape [1] = assay: Test C postemergence; format: in vivo, Brassica napus; details: for Plant response rating (scale of 0 to 100 where 0 is no effect and 100 is complete control), Oilseed Rape: Postemergence, 31 g ai/ha, visually evaluated after 13 to 15 days; for Oilseed Rape plant response rating / Plant response rating, Oilseed Rape: postemergence; for Oilseed Rape plant response rating: 62 g ai/ha, scale 0 to 100
# Method in brief: (§1)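 Herbicidal effect is expressed as percent visual control (0–100) judged against untreated plants 13 to 15 days after treatment in the greenhouse. Preemergence pots contained seeds in a soil–sand blend; postemergence plants, 2–18 cm tall, grew in peat-based planting medium.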
# oilseed rape [2] = assay: Test C preemergence; format: in vivo, Brassica napus; details: for Plant response rating (scale of 0 to 100), Oilseed Rape: Preemergence
# Method in brief: as §1
# johnsongrass = assay: Test C preemergence; format: in vivo, Sorghum halepense; details: for Plant response rating (scale of 0 to 100), Johnsongrass: Preemergence
# Method in brief: as §1
# waterhemp = assay: Test C postemergence; format: in vivo, Amaranthus rudis; details: for Plant response rating (scale of 0 to 100 where 0 is no effect and 100 is complete control), Waterhemp: Postemergence, 31 g ai/ha, visually evaluated after 13 to 15 days; for Waterhemp plant response rating / Plant response rating, Waterhemp: postemergence; for Waterhemp plant response rating: scale 0 to 100
# Method in brief: as §1
# ducksalad = assay: Test B flood; format: in vivo, Heteranthera limosa; details: 250 g ai/ha, visual rating on 0 to 100 scale (0 no effect, 100 complete control), 13 to 15 days
# Method in brief: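 Flooded-pot test: compound dosed into 3 cm of standing water above soil when plants had two leaves. Visual control ratings (0–100) versus untreated plants after 13–15 d.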
# foxtail, giant = assay: Test A postemergence; format: in vivo, Setaria faberii
# Method in brief: (§2)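 Scoring was visual, on a scale where 100 means complete control and 0 means no effect, comparing treated with untreated plants around 10 days post-application. Compounds in surfactant-containing non-phytotoxic solvent were sprayed onto soil preemergence or onto one- to two-leaf seedlings (2–10 cm) postemergence.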
# soybean = assay: Test C postemergence; format: in vivo, Glycine max; details: for Plant response rating (scale of 0 to 100 where 0 is no effect and 100 is complete control), Soybean: Postemergence, 31 g ai/ha, visually evaluated after 13 to 15 days; for Soybean plant response rating / Plant response rating, Soybean: postemergence
# Method in brief: as §1
# crabgrass, large [3] = assay: Test C postemergence; format: in vivo, Digitaria sanguinalis; details: for Plant response rating (scale of 0 to 100 where 0 is no effect and 100 is complete control), Crabgrass, Large: Postemergence, 31 g ai/ha, visually evaluated after 13 to 15 days; for Crabgrass, Large plant response rating / Plant response rating, Crabgrass, Large: postemergence; for Crabgrass, Large plant response rating: 62 g ai/ha, scale 0 to 100
# Method in brief: as §1
# morningglory [4] = assay: Test C preemergence; format: in vivo, Ipomoea coccinea; details: for Plant response rating (scale of 0 to 100), Morningglory: Preemergence
# Method in brief: as §1
# blackgrass = assay: Test C preemergence; format: in vivo, Alopecurus myosuroides; details: for Plant response rating (scale of 0 to 100), Blackgrass: Preemergence
# Method in brief: as §1
# velvetleaf = assay: Test C postemergence; format: in vivo, Abutilon theophrasti; details: for Plant response rating (scale of 0 to 100 where 0 is no effect and 100 is complete control), Velvetleaf: Postemergence, 31 g ai/ha, visually evaluated after 13 to 15 days; for Velvetleaf plant response rating / Plant response rating, Velvetleaf: postemergence; for Velvetleaf plant response rating: scale 0 to 100
# Method in brief: as §1
# crabgrass, large [5] = assay: Test C preemergence; format: in vivo, Digitaria sanguinalis; details: for Plant response rating (scale of 0 to 100), Crabgrass, Large: Preemergence
# Method in brief: as §1
# morningglory [6] = assay: Test A postemergence; format: in vivo, Ipomoea spp.
# Method in brief: as §2
# [7] = 250 g ai/ha, scale 0 to 100 (0 no effect, 100 complete control)
# [8] = 125 g ai/ha, scale 0 to 100, 0 no effect, 100 complete control
# [9] = preemergence, 31 g ai/ha, visual rating, scale 0 to 100 (0 no effect, 100 complete control), 13 to 15 days
# [10] = preemergence, 62 g ai/ha, scale 0 to 100 (0 no effect, 100 complete control), 13 to 15 days
# [11] = preemergence, 125 g ai/ha, scale 0 to 100, 0 is no effect, 100 is complete control
# [12] = Postemergence, 500 g ai/ha, visual rating after approx. 10 days, 0 to 100 scale (0 no effect, 100 complete control)
# [13] = postemergence, 125 g ai/ha, about 10 days, visual rating on 0 to 100 scale (0 no effect, 100 complete control)
# [14] = preemergence, 125 g ai/ha, 13 to 15 days, scale 0 to 100, 0 = no effect, 100 = complete control
# [15] = preemergence, 250 g ai/ha, scale 0 to 100, 0 is no effect, 100 is complete control
smiles,measurement,setting,value
CCCNC(=O)c1cc(CC)n(Cc2nc(C(F)(F)F)nn2C)n1 [Compound 109],"Plant response rating (scale of 0 to 100 where 0 is no effect and 100 is complete control), Oilseed Rape",oilseed rape [1],40
same,Oilseed Rape plant response rating,oilseed rape [1],45
same,"Plant response rating, Oilseed Rape",oilseed rape [1]; [7],50
same,"Plant response rating, Oilseed Rape",oilseed rape [1]; [8],45
same,"Plant response rating (scale of 0 to 100), Oilseed Rape",oilseed rape [2]; 250 g ai/ha,100
same,Oilseed Rape plant response rating,oilseed rape [2]; [9],40
same,Oilseed Rape plant response rating,oilseed rape [2]; [10],100
same,Oilseed Rape plant response rating,oilseed rape [2]; [11],100
same,"Plant response rating (scale of 0 to 100), Johnsongrass",johnsongrass; 250 g ai/ha,100
same,Johnsongrass plant response rating,johnsongrass; [9],80
same,Johnsongrass plant response rating,johnsongrass; [10],90
same,Johnsongrass plant response rating,johnsongrass; [11],100
same,"Plant response rating (scale of 0 to 100 where 0 is no effect and 100 is complete control), Waterhemp",waterhemp,35
same,Waterhemp plant response rating,waterhemp; 62 g ai/ha,35
same,"Plant response rating, Waterhemp",waterhemp; [7],75
same,"Plant response rating, Waterhemp",waterhemp; [8],60
same,"Plant response rating, Ducksalad",ducksalad,0
same,"Foxtail, Giant plant response rating","foxtail, giant; [12]",90
same,"Foxtail, Giant plant response rating","foxtail, giant; [13]",90
same,"Plant response rating (scale of 0 to 100 where 0 is no effect and 100 is complete control), Soybean",soybean,55
same,Soybean plant response rating,"soybean; 62 g ai/ha, scale 0 to 100",60
same,"Plant response rating, Soybean",soybean; [7],75
same,"Plant response rating, Soybean",soybean; [8],75
same,"Plant response rating (scale of 0 to 100 where 0 is no effect and 100 is complete control), Crabgrass, Large","crabgrass, large [3]",5
same,"Crabgrass, Large plant response rating","crabgrass, large [3]",10
same,"Plant response rating, Crabgrass, Large","crabgrass, large [3]; [7]",45
same,"Plant response rating, Crabgrass, Large","crabgrass, large [3]; [8]",10
same,"Plant response rating (scale of 0 to 100), Morningglory",morningglory [4]; 250 g ai/ha,100
same,Morningglory plant response rating,morningglory [4]; [9],95
same,Morningglory plant response rating,morningglory [4]; [10],100
same,Morningglory plant response rating,morningglory [4]; [11],100
same,"Plant response rating (scale of 0 to 100), Blackgrass",blackgrass; 250 g ai/ha,100
same,Blackgrass plant response rating,blackgrass; [9],100
same,Blackgrass plant response rating,blackgrass; [10],100
same,Blackgrass plant response rating,blackgrass; [11],100
same,"Plant response rating (scale of 0 to 100 where 0 is no effect and 100 is complete control), Velvetleaf",velvetleaf,10
same,Velvetleaf plant response rating,velvetleaf; 62 g ai/ha,15
same,"Plant response rating, Velvetleaf",velvetleaf; [7],35
same,"Plant response rating, Velvetleaf",velvetleaf; [8],25
same,"Plant response rating (scale of 0 to 100), Crabgrass, Large","crabgrass, large [5]; 250 g ai/ha",100
same,"Crabgrass, Large plant response rating","crabgrass, large [5]; [9]",90
same,"Crabgrass, Large plant response rating","crabgrass, large [5]; [10]",100
same,"Crabgrass, Large plant response rating","crabgrass, large [5]; [11]",100
same,Morningglory plant response rating,morningglory [6]; [12],100
same,Morningglory plant response rating,morningglory [6]; [13],90
CCc1cc(C(=O)NCC(F)(F)F)nn1Cc1nc(C(F)(F)F)nn1C [Compound 107],"Plant response rating (scale of 0 to 100 where 0 is no effect and 100 is complete control), Oilseed Rape",oilseed rape [1],5
same,Oilseed Rape plant response rating,oilseed rape [1],60
same,"Plant response rating, Oilseed Rape",oilseed rape [1]; [7],80
same,"Plant response rating, Oilseed Rape",oilseed rape [1]; [8],60
same,"Plant response rating (scale of 0 to 100), Oilseed Rape",oilseed rape [2]; 250 g ai/ha,100
same,Oilseed Rape plant response rating,oilseed rape [2]; [9],98
same,Oilseed Rape plant response rating,oilseed rape [2]; [10],100
same,Oilseed Rape plant response rating,oilseed rape [2]; [11],100
same,"Plant response rating (scale of 0 to 100), Johnsongrass",johnsongrass; 250 g ai/ha,100
same,Johnsongrass plant response rating,johnsongrass; [9],30
same,Johnsongrass plant response rating,johnsongrass; [10],65
same,Johnsongrass plant response rating,johnsongrass; [11],90
same,"Plant response rating (scale of 0 to 100 where 0 is no effect and 100 is complete control), Waterhemp",waterhemp,5
same,Waterhemp plant response rating,waterhemp; 62 g ai/ha,40
same,"Plant response rating, Waterhemp",waterhemp; [7],80
same,"Plant response rating, Waterhemp",waterhemp; [8],40
same,"Plant response rating, Ducksalad",ducksalad,70
same,"Foxtail, Giant plant response rating","foxtail, giant; [12]",90
same,"Foxtail, Giant plant response rating","foxtail, giant; [13]",70
same,"Plant response rating (scale of 0 to 100 where 0 is no effect and 100 is complete control), Soybean",soybean,20
same,Soybean plant response rating,"soybean; 62 g ai/ha, scale 0 to 100",50
same,"Plant response rating, Soybean",soybean; [7],90
same,"Plant response rating, Soybean",soybean; [8],50
same,"Plant response rating (scale of 0 to 100 where 0 is no effect and 100 is complete control), Crabgrass, Large","crabgrass, large [3]",5
same,"Crabgrass, Large plant response rating","crabgrass, large [3]",30
same,"Plant response rating, Crabgrass, Large","crabgrass, large [3]; [7]",85
same,"Plant response rating, Crabgrass, Large","crabgrass, large [3]; [8]",45
same,"Plant response rating (scale of 0 to 100), Morningglory",morningglory [4]; 250 g ai/ha,100
same,Morningglory plant response rating,morningglory [4]; [9],90
same,Morningglory plant response rating,morningglory [4]; [10],100
same,Morningglory plant response rating,morningglory [4]; [11],100
same,"Plant response rating (scale of 0 to 100), Blackgrass",blackgrass; 250 g ai/ha,100
same,Blackgrass plant response rating,blackgrass; [9],95
same,Blackgrass plant response rating,blackgrass; [10],100
same,Blackgrass plant response rating,blackgrass; [11],100
same,"Plant response rating (scale of 0 to 100 where 0 is no effect and 100 is complete control), Velvetleaf",velvetleaf,30
same,Velvetleaf plant response rating,velvetleaf; 62 g ai/ha,30
same,"Plant response rating, Velvetleaf",velvetleaf; [7],50
same,"Plant response rating, Velvetleaf",velvetleaf; [8],35
same,"Plant response rating (scale of 0 to 100), Crabgrass, Large","crabgrass, large [5]; 250 g ai/ha",98
same,"Crabgrass, Large plant response rating","crabgrass, large [5]; [9]",98
same,"Crabgrass, Large plant response rating","crabgrass, large [5]; [10]",98
same,"Crabgrass, Large plant response rating","crabgrass, large [5]; [11]",98
same,Morningglory plant response rating,morningglory [6]; [12],100
same,Morningglory plant response rating,morningglory [6]; [13],90
CCCc1cc(C(=O)NC2CC2)nn1Cc1ccnc(OC(F)F)c1 [Compound 205],Oilseed Rape plant response rating,oilseed rape [1],25
same,"Plant response rating, Oilseed Rape",oilseed rape [1]; [7],50
same,"Plant response rating, Oilseed Rape",oilseed rape [1]; [8],50
same,Oilseed Rape plant response rating,oilseed rape [2]; [9],100
same,Oilseed Rape plant response rating,oilseed rape [2]; [10],100
same,"Plant response rating, Oilseed Rape",oilseed rape [2]; [14],100
same,Oilseed Rape plant response rating,oilseed rape [2]; [15],100
same,Johnsongrass plant response rating,johnsongrass; [9],70
same,Johnsongrass plant response rating,johnsongrass; [10],80
same,"Plant response rating, Johnsongrass",johnsongrass; [14],90
same,Johnsongrass plant response rating,johnsongrass; [15],100
same,"Plant response rating, Waterhemp",waterhemp; [7],85
same,Waterhemp plant response rating,waterhemp,70
same,"Plant response rating, Ducksalad",ducksalad,100
same,"Foxtail, Giant plant response rating","foxtail, giant; Postemergence, 500 g ai/ha, 0 to 100 scale (0 no effect, 100 complete control)",90
same,"Foxtail, Giant plant response rating","foxtail, giant; [13]",90
same,"Plant response rating, Soybean",soybean; [7],90
same,Soybean plant response rating,soybean; [8],70
same,"Plant response rating (scale of 0 to 100 where 0 is no effect and 100 is complete control), Crabgrass, Large","crabgrass, large [3]",5
same,"Crabgrass, Large plant response rating","crabgrass, large [3]",10
same,"Plant response rating, Crabgrass, Large","crabgrass, large [3]; [7]",65
same,"Plant response rating, Crabgrass, Large","crabgrass, large [3]; [8]",45
same,Morningglory plant response rating,morningglory [4]; [9],100
same,Morningglory plant response rating,morningglory [4]; [10],100
same,"Plant response rating, Morningglory",morningglory [4]; [14],100
same,Morningglory plant response rating,morningglory [4]; [15],100
same,Blackgrass plant response rating,blackgrass; [9],80
same,Blackgrass plant response rating,blackgrass; [10],95
same,"Plant response rating, Blackgrass",blackgrass; [14],95
same,Blackgrass plant response rating,blackgrass; [15],100
same,"Plant response rating, Velvetleaf",velvetleaf; [7],40
same,Velvetleaf plant response rating,velvetleaf,40
same,"Crabgrass, Large plant response rating","crabgrass, large [5]; [9]",100
same,"Crabgrass, Large plant response rating","crabgrass, large [5]; [10]",100
same,"Plant response rating, Crabgrass, Large","crabgrass, large [5]; [14]",100
same,"Crabgrass, Large plant response rating","crabgrass, large [5]; [15]",100
